Key:
Human TGFβR-1 = target: T1, Human TGFβR-1 (Homo sapiens, UniProt P36897); assay: In vitro enzyme assay: inhibition of TGFβR-1 (ADP-Glo kinase assay); assay type: biochemical; details: TGFβR-1 kinase 50 ng/well, 50 μM ATP, 120 min RT
T1 construct: purchased Promega V4092
T1 sequence (P36897 34-503): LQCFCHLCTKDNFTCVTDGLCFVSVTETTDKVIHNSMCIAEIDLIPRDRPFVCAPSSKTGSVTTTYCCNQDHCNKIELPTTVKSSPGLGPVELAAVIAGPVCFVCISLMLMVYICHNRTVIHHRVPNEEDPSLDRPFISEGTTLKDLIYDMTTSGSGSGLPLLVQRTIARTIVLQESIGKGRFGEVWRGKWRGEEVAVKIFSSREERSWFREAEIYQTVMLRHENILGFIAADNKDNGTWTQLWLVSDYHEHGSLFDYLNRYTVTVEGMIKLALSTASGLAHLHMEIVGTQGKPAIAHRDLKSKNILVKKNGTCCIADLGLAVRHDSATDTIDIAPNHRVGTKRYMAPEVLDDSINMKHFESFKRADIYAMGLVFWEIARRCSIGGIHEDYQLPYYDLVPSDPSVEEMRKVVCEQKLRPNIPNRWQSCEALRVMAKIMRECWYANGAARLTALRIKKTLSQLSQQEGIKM
Excerpt: In the present application are used the following abbreviations, with the corresponding definitions: • AcOH: Acetic Acid • ACVR2B: activin A receptor, type IIB • ALKn: activin receptor-like kinase n • ATP: adenosin triphosphate • Boc2O: tert-butyl dicarbonate • Boc: tert-Butoxycarbonyl • Clint: Intrinsic clearance • DIPEA: N,N-Diisopropylethylamine • DMA: Dimethylacetamide • DMAP: 4-Dimethylaminopyridine • DMF: N,N-Dimethylformamide • DMSO: Dimethyl sulfoxide • EDCl: N-(3-Dimethylaminopropyl)-N′-ethylcarbodiimide) • Et3N: Triethylamine • EtOAc: Ethyl acetate • EtOH: ethanol • FBS: Fetal bovine serum • H: hour • HATU: 1-[Bis(dimethylamino)methylene]-1H-1,2,3-triazolo[4,5-b]pyridinium 3-oxide hexafluorophosphate • HOBT: Hydroxybenzotriazole • HPLC: High-performance liquid chromatography • ^1H-NMR: Proton nuclear magnetic resonance • K2EDTA: ethylenediaminetetracetic acid dipotassium salt • LC: Liquid chromatography • LiHMDS: Lithium bis(trimethylsilyl)amide • LLOQ: lower limit of quantification • MeCN: Acetonitrile • MeOH: Methanol • Min: minutes • MS: Mass spectroscopy • MTBE: Methyl tert-butyl ether • NBS: N-Bromosuccinimide • NaCMC: Sodium carboxymethyl cellulose • Rt: retention time • RT: room temperature • Sem: 2-(Trimethylsilyl)ethoxymethyl • TGFβ: transforming growth factor-β • THF: Tetrahydrofuran • THF:EtOH: Tetrahydrofuran:ethanol • UPLC: ultra high-performance liquid chromatography • UV: Ultraviolet Pharmacological Activity In Vitro Enzyme Assay: Inhibition of TGFβR-1 Human TGFβR-1 inhibition experiments were carried out in a white 384-microplate low flange (Corning 3572) with ADP-Glo kinase Assay Kit (Promega V9101) and TGFβR-1 Kinase Enzyme System (Promega V4092). Test compounds and standard Galunisertib (Cayman 15312), 50 ng/well TGFβR-1 kinase and 50 μM ATP were added in a final volume of 10 μL/well, using Reaction buffer supplied by kit as assay buffer. The reaction mixture was incubated in gentle shaking for 120 min at RT, after incubation of 10 μL of ADP-Glo Reagent was added and incubated in gentle shaking for 40 min at RT. 20 μL of Kinase Detection Reagent was added and plate was incubated in gentle shaking for 30 min at RT. Luminescence (1000 ms) was measured in Perkin Elmer EnSpire Multimode plate reader. Results

ALK-5 = target: T2, ALK-5 (Homo sapiens, UniProt P36897); assay: Determination of the intracellular TGF-beta kinase activity (ALK-5), AlphaLISA SureFire p-SMAD3 in A549 cells; assay type: cell-based; details: A549 cell line, TGF-β2 activated, p-SMAD3(Ser423/425)
T2 construct: endogenous in cells; host or cells: A549
T2 sequence (P36897 34-503): T1 sequence (P36897 34-503)
Protocol: Determination of the Intracellular TGF-Beta Kinase Activity (ALK-5)
The experiments were carried out in A549 cell line. 30000 cells were seeded in 200 μl of culture medium (Sigma D6046) supplemented with L-Glutamine (Sigma G7513), Penicillin/Streptomycin (Invitrogen 11058) and FBS (Sigma F9665) on a 96 wells microplate (Becton Dickinson 353072). After 16 hours medium was changed to serum free medium. Galunisertib, as inhibitor ligand (Cayman CAY-15312) and recombinant Human TGF-β2 (R&D Systems 302-B2-002) as activator of the ALK-5, were added in their corresponding wells and incubated following the instructions of the Alphascreen AlphaLISA@SureFire® Ultra™ p-SMAD3(Ser423/425) Kit (Perkin Elmer ALSU-PSM3-A500).

[1] = Determination of plasma stability in human plasma; assay type: in vitro ADME; details: 10 μM, 37° C.
Protocol: Determination of Plasma Stability of Some Compounds
Human plasma pooled from healthy donors extracted in citrate tubes was employed in the assay. Briefly, plates containing 10 μM compounds in plasma (total volume: 50 μL) were incubated at 37° C. at the different times (0, 30, 120 and 360 min). Then 100 μl Acetonitrile were added for precipitating plasma protein, and the plate was centrifuged at 46000 g for 60 min at 5° C. Supernatant was taken and analysed by UPLC/MS/MS for sample quantification. Stationary phase: Reverse phase Acquity UPLC® BEH C18 1.7 μm (2.1 mm×50 mm) (Waters). Mobile phase: 0.1% Formic acid water/0.1% formic acid in acetonitrile.
Flow: 0.6 ml/min. The chromatographic equipment employed was an UPL QSM Waters Acquity. Compound concentrations were calculated from the MS peak areas.

Compound | IC50 (Human TGFβR-1) [nM] | IC50 (ALK-5) [nM] | remaining percentage 0 min [1] [%] | remaining percentage 30 min [1] [%] | remaining percentage 120 min [1] [%] | remaining percentage 360 min [1] [%]
CCN(CC)CCOC(=O)c1cc(F)cc(NC(=O)Cn2cc(-c3ccnc4ccccc34)c(-c3cccc(C)n3)n2)c1 [Example 7, 2-(diethylamino)ethyl 3-fluoro-5-(2-(3-(6-methylpyridin-2-yl)-4-(quinolin-4-yl)-1H-pyrazol-1-yl)acetamido)benzoate] | 100 to 250 | < 1000 | 100 | 16.0 | 3.3 | 0.1
Cc1cccc(-c2nn(CC(=O)Nc3cc(F)cc(C(=O)OC4CCNCC4)c3)cc2-c2ccnc3ccccc23)n1 [Example 21, piperidin-4-yl 3-fluoro-5-(2-(3-(6-methylpyridin-2-yl)-4-(quinolin-4-yl)-1H-pyrazol-1-yl)acetamido)benzoate] | < 100 | > 1000 | 100 | 74.3 | 34.2 | 6.3
Cc1cccc(-c2nn(CC(=O)Nc3cc(F)cc(C(=O)OCC4CCN(C)CC4)c3)cc2-c2ccnc3ccccc23)n1 [Example 9, (1-methylpiperidin-4-yl)methyl 3-fluoro-5-(2-(3-(6-methylpyridin-2-yl)-4-(quinolin-4-yl)-1H-pyrazol-1-yl)acetamido)benzoate] | < 100 | < 1000 | 100 | 16.6 | 3.1 | 0
Cc1cccc(-c2nn(CC(=O)Nc3ccc(C(=O)OCCN(C)C)nc3)cc2-c2ccnc3ccccc23)n1 [Example 5, 2-(dimethylamino)ethyl 5-(2-(3-(6-methylpyridin-2-yl)-4-(quinolin-4-yl)-1H-pyrazol-1-yl)acetamido)picolinate] | < 100 | > 1000 | 100 | 10 | 0 | 0
Cc1cccc(-c2nn(CC(=O)Nc3cc(F)cc(C(=O)OCCN4CCNCC4)c3)cc2-c2ccnc3ccccc23)n1 [Example 19, 2-(piperazin-1-yl)ethyl 3-fluoro-5-(2-(3-(6-methylpyridin-2-yl)-4-(quinolin-4-yl)-1H-pyrazol-1-yl)acetamido)benzoate] | < 100 | < 1000 | 100 | 1.9 | 0.3 | 0
Cc1cccc(-c2nn(CC(=O)Nc3cc(F)cc(C(=O)OCCN(C)C)c3)cc2-c2ccnc3ccccc23)n1 [Example 1, 2-(dimethylamino)ethyl 3-fluoro-5-(2-(3-(6-methylpyridin-2-yl)-4-(quinolin-4-yl)-1H-pyrazol-1-yl)acetamido)benzoate] | < 100 | < 1000 | 100 | 0 | 0 | 0
CNCCOC(=O)c1cc(F)cc(NC(=O)Cn2cc(-c3ccnc4ccccc34)c(-c3cccc(C)n3)n2)c1 [Example 15, 2-(methylamino)ethyl 3-fluoro-5-(2-(3-(6-methylpyridin-2-yl)-4-(quinolin-4-yl)-1H-pyrazol-1-yl)acetamido)benzoate] | < 100 | > 1000 |  |  |  | 
Cc1cccc(-c2nn(CC(=O)Nc3cc(F)cc(C(=O)OCCN4CCOCC4)c3)cc2-c2ccnc3ccccc23)n1 [Example 4, 2-morpholinoethyl 3-fluoro-5-(2-(3-(6-methylpyridin-2-yl)-4-(quinolin-4-yl)-1H-pyrazol-1-yl)acetamido)benzoate] | 100 to 250 | < 1000 |  |  |  | 

From US12577230B2, “2-(3-pyridin-2-yl-4-quinolin-4-yl-pyrazol-1-yl)- acetamide derivatives as inhibitors of transforming growth factor-beta receptor I/ALK5” (AGOMAB SPAIN S.L.U., priority 2020, dated 2026)
